Reference: ChEMBL document CHEMBL1201862, “PubChem BioAssay data set” (2004)
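The compound was tested at five concentrations on cells cultured in 96-well plates, with a 48-hour exposure period. Here, GI50 denotes the concentration required for 50% inhibition of growth.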 Active and inactive are the calls of the source. Cut-off read from the data, not from the text of the source: active = GI50 up to about 1.1 µM and inactive = higher.

What was measured:
Experiment in all cases: NCI anticancer screen, dose series, 48 h
M14 = test system: M14
SNB-19 = test system: SNB-19
HT-29 = test system: HT-29
HL-60 = test system: HL-60
SK-OV-3 = test system: SK-OV-3
COLO 205 = test system: COLO 205
Malme-3M = test system: Malme-3M
SR = test system: SR
OVCAR-3 = test system: OVCAR-3
HOP-62 = test system: HOP-62
RPMI-8226 = test system: RPMI-8226
IGROV-1 = test system: IGROV-1
UACC-62 = test system: UACC-62
786-0 = test system: 786-0
UO-31 = test system: UO-31
TK-10 = test system: TK-10
CCRF-CEM = test system: CCRF-CEM
NCI-H460 = test system: NCI-H460

## CC(=O)c1c(O)ccc2c1CC(CC=O)O2 (stereo not given)
M14
  GI50: 47.5 µM (inactive)
SNB-19
  GI50: > 100 µM (inactive)
HT-29
  GI50: 37.2 µM (inactive)
HL-60
  GI50: > 100 µM (inactive)
SK-OV-3
  GI50: > 100 µM (inactive)
COLO 205
  GI50: > 100 µM (inactive)
Malme-3M
  GI50: > 100 µM (inactive)
SR
  GI50: > 100 µM (inactive)
OVCAR-3
  GI50: 48.5 µM (inactive)
HOP-62
  GI50: > 100 µM (inactive)
RPMI-8226
  GI50: 45.3 µM (inactive)
IGROV-1
  GI50: > 100 µM (inactive)
UACC-62
  GI50: 28.8 µM (inactive)
786-0
  GI50: 69.7 µM (inactive)
UO-31
  GI50: 63.2 µM (inactive)
TK-10
  GI50: > 100 µM (inactive)
CCRF-CEM
  GI50: 74.8 µM (inactive)
NCI-H460
  GI50: > 100 µM (inactive)

## N#C/C(=C\c1ccc(O)c(O)c1)C(N)=S [TYRPHOSTIN 47]
M14
  GI50: > 100 µM (inactive)
SNB-19
  GI50: > 70.3 µM (inactive)
HT-29
  GI50: 61.8 µM (inactive)
HL-60
  GI50: 10.1 µM (inactive)
SK-OV-3
  GI50: > 100 µM (inactive)
COLO 205
  GI50: 56 µM (inactive)
Malme-3M
  GI50: > 100 µM (inactive)
SR
  GI50: 36.1 µM (inactive)
OVCAR-3
  GI50: 38.7 µM (inactive)
HOP-62
  GI50: > 100 µM (inactive)
RPMI-8226
  GI50: > 49.2 µM (inactive)
IGROV-1
  GI50: > 100 µM (inactive)
UACC-62
  GI50: 81.5 µM (inactive)
786-0
  GI50: 56.6 µM (inactive)
UO-31
  GI50: 98.9 µM (inactive)
TK-10
  GI50: > 100 µM (inactive)
CCRF-CEM
  GI50: 9.55 µM (inactive)
NCI-H460
  GI50: 45.9 µM (inactive)

## C/C(CC(=O)Nc1ccc(NC(=O)C/C(C)=N\NC(N)=O)cc1)=N/NC(N)=O
M14
  GI50: 65.3 µM (inactive)
SNB-19
  GI50: > 100 µM (inactive)
HT-29
  GI50: 96.8 µM (inactive)
HL-60
  GI50: > 61.7 µM (inactive)
SK-OV-3
  GI50: > 100 µM (inactive)
COLO 205
  GI50: > 50.9 µM (inactive)
Malme-3M
  GI50: > 100 µM (inactive)
SR
  GI50: 38.5 µM (inactive)
OVCAR-3
  GI50: 49.5 µM (inactive)
HOP-62
  GI50: > 100 µM (inactive)
RPMI-8226
  GI50: 24.8 µM (inactive)
IGROV-1
  GI50: > 100 µM (inactive)
UACC-62
  GI50: > 84.9 µM (inactive)
786-0
  GI50: > 68.9 µM (inactive)
UO-31
  GI50: > 85.1 µM (inactive)
TK-10
  GI50: > 68.7 µM (inactive)
CCRF-CEM
  GI50: > 62.8 µM (inactive)
NCI-H460
  GI50: > 62.4 µM (inactive)

## O=C(NNC(=O)c1cc(/C=C/c2cccc([N+](=O)[O-])c2)nc(S)n1)Nc1ccc(Cl)cc1
M14
  GI50: 93.8 µM (inactive)
HT-29
  GI50: 41.8 µM (inactive)
HL-60
  GI50: 0.883 µM (active)
SK-OV-3
  GI50: > 100 µM (inactive)
COLO 205
  GI50: 18.4 µM (inactive)
Malme-3M
  GI50: > 100 µM (inactive)
SR
  GI50: 1.25 µM (inactive)
OVCAR-3
  GI50: 62.8 µM (inactive)
HOP-62
  GI50: > 100 µM (inactive)
RPMI-8226
  GI50: 25.5 µM (inactive)
IGROV-1
  GI50: > 100 µM (inactive)
UACC-62
  GI50: 50.6 µM (inactive)
786-0
  GI50: 47.8 µM (inactive)
UO-31
  GI50: 91.2 µM (inactive)
TK-10
  GI50: > 100 µM (inactive)
CCRF-CEM
  GI50: 20.6 µM (inactive)
NCI-H460
  GI50: 46.6 µM (inactive)

## Nc1ccc2ncc(Nc3ccc(Cl)c(Cl)c3)nc2c1
M14
  GI50: 19.4 µM (inactive)
SNB-19
  GI50: 24.5 µM (inactive)
HT-29
  GI50: 14.8 µM (inactive)
HL-60
  GI50: 14.5 µM (inactive)
SK-OV-3
  GI50: 38.9 µM (inactive)
COLO 205
  GI50: 16.7 µM (inactive)
Malme-3M
  GI50: 23.1 µM (inactive)
SR
  GI50: 57.7 µM (inactive)
OVCAR-3
  GI50: 19.4 µM (inactive)
HOP-62
  GI50: 42.3 µM (inactive)
RPMI-8226
  GI50: 24.5 µM (inactive)
UACC-62
  GI50: 20.2 µM (inactive)
786-0
  GI50: 39.6 µM (inactive)
UO-31
  GI50: 19.7 µM (inactive)
TK-10
  GI50: 70.6 µM (inactive)
CCRF-CEM
  GI50: 19.7 µM (inactive)
NCI-H460
  GI50: 27.4 µM (inactive)

## Brc1ccc(C[N+]23CN4CN(CN(C4)C2)C3)cc1
M14
  GI50: 16.9 µM (inactive)
SNB-19
  GI50: > 100 µM (inactive)
HL-60
  GI50: 10.4 µM (inactive)
SK-OV-3
  GI50: > 100 µM (inactive)
COLO 205
  GI50: 26.3 µM (inactive)
Malme-3M
  GI50: 26.2 µM (inactive)
SR
  GI50: > 10 µM (inactive)
OVCAR-3
  GI50: 73.1 µM (inactive)
HOP-62
  GI50: > 100 µM (inactive)
RPMI-8226
  GI50: 20.4 µM (inactive)
IGROV-1
  GI50: > 100 µM (inactive)
UACC-62
  GI50: 14.8 µM (inactive)
786-0
  GI50: 30.6 µM (inactive)
UO-31
  GI50: 50.5 µM (inactive)
TK-10
  GI50: > 100 µM (inactive)
CCRF-CEM
  GI50: 20.5 µM (inactive)
NCI-H460
  GI50: 28.3 µM (inactive)
